Data: PubChem BioAssay (NCI)
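GI50 = concentration required for 50% inhibition of growth. TGI marks complete inhibition of growth.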

What was measured:
Test in all cases: NCI-60 cell line screen, 384-well format
[1] = tested on: A498 renal
[2] = tested on: A549 NSCLC
[3] = tested on: ACHN renal
[4] = tested on: BT-549 breast
[5] = tested on: CCRF-CEM leukemia
[6] = tested on: COLO 205 colon
[7] = tested on: DU-145 prostate
[8] = tested on: EKVX NSCLC
[9] = tested on: HCC-2998 colon
[10] = tested on: HCT-116 colon
[11] = tested on: HCT-15 colon
[12] = tested on: HL-60(TB) leukemia
[13] = tested on: HOP-62 NSCLC
[14] = tested on: HOP-92 NSCLC
[15] = tested on: HT29 colon
[16] = tested on: IGROV1 ovarian
[17] = tested on: K-562 leukemia
[18] = tested on: M14 melanoma
[19] = tested on: MDA-MB-468 breast
[20] = tested on: NCI-H226 lung
[21] = tested on: NCI-H23 lung
[22] = tested on: NCI-H322M lung
[23] = tested on: NCI-H460 NSCLC
[24] = tested on: NCI-H522 lung

C[C@@H](Nc1nc(N[C@H](C)C(F)(F)F)nc(-c2cccc(Cl)n2)n1)C(F)(F)F
GI50 [1]: 32.9 µM
TGI [1]: > 72.4 µM
GI50 [2]: > 51.8 µM
TGI [2]: > 83 µM
GI50 [3]: > 100 µM
TGI [3]: > 100 µM
GI50 [4]: 32.5 µM
TGI [4]: > 70.3 µM
GI50 [5]: > 100 µM
TGI [5]: > 100 µM
GI50 [6]: > 100 µM
TGI [6]: > 100 µM
GI50 [7]: 34.1 µM
TGI [7]: > 100 µM
GI50 [8]: > 100 µM
TGI [8]: > 100 µM
GI50 [9]: > 80.1 µM
TGI [9]: > 100 µM
GI50 [10]: 89.3 µM
TGI [10]: > 100 µM
GI50 [11]: > 100 µM
TGI [11]: > 100 µM
GI50 [12]: > 85.3 µM
TGI [12]: > 100 µM
GI50 [13]: 28.5 µM
TGI [13]: > 65.4 µM
GI50 [14]: 43 µM
TGI [14]: > 100 µM
GI50 [15]: > 100 µM
TGI [15]: > 100 µM
GI50 [16]: > 100 µM
TGI [16]: > 100 µM
GI50 [17]: > 100 µM
TGI [17]: > 100 µM
GI50 [18]: > 100 µM
TGI [18]: > 100 µM
GI50 [19]: 20.9 µM
TGI [19]: > 90.2 µM
GI50 [20]: 84.7 µM
TGI [20]: > 100 µM
GI50 [21]: > 49.9 µM
TGI [21]: > 89.7 µM
GI50 [22]: > 100 µM
TGI [22]: > 100 µM
GI50 [23]: 36.4 µM
TGI [23]: > 100 µM
GI50 [24]: > 100 µM
